Source: patent US20060160869A1, “Ubiquitin ligase inhibitors” (Rigel Pharmaceuticals, Inc., priority 2005, published 2006)
Like-named read-outs stand apart in the source and are kept apart here.

Experiments:
[1] = target: E3 (His-APC11/APC2, "APC") (Homo sapiens, UniProt Q9NYG5+Q9UJX6); test: Plate-based E3 ligase assay (APC FLAG), auto-ubiquitination; format: biochemical
Description: E3 (His-APC11/APC2—“APC”) auto-ubiquitination was measured as described in U.S. patent application Ser. No. 09/826,312 (Publication No. US-2002-0042083-A1), which is incorporated herein in its entirety. Details of the protocol are described below. Activity in the presence of the compound was determined relative to a parallel control in which only DMSO was added. Values of the IC50 were typically determined using 6 or 8 different concentrations of the compound, although as few as 2 concentrations may be used to approximate the IC50 value.
Nickel-coated 96-well plates (Pierce 15242) were blocked for 1 hour with 100 μl of blocking buffer at room temperature. The plates were washed 4 times with 225 μl of 1×PBS and 80 μl of the reaction buffer were added that contained 100 ng/well of Flag-ubiquitin. To this, 10 μl of the test compound diluted in DMSO were added. After the test compound was added, 10 μl of E1 (human), E2 (Ubch5c), and APC in Protein Buffer was added to obtain a final concentration of 5 ng/well of E1, 20 ng/well: of E2 and 100 ng/well of APC. The plate were shaken for 10 minutes and incubated at room temperature for 1 hour. After incubation, the plates were washed 4 times with 225 μl of 1×PBS and 100 μl/well of Antibody Mix were added to each well. The plates were incubate at room temperature for another hour after which they were washed 4 times with 225 μl of 1×PBS and 100 μl/well of Lumino substrate were added to each well. The luminescence was measured by using a BMG luminescence microplate reader.
APC Plate/gel is Anaphase Promoting Complex. This protein also belongs to E3 RING finger ligase group.

H1299 cells = test: PAD anti-proliferation assay, H1299; format: cell-based; settings: Homo sapiens, NCI-H1299, 48 hours
Description: (§1) A549 (ATCC# CCL 185), HeLa (ATCC# CCL 2), HCT116 (ATCC# CCL-247), and H 1299 (ATCC# CRL-5803) cells were maintained in T175 flasks following the ATCC recommended media and handling procedures. Flasks reaching approximately 70% confluency were trypsinized and resuspended in RPMI media (Cell Gro catalog number 10 040 CM) modified to contain 5% FBS, 100 ug/mlPen/Strep (Cell Gro catalog number 30 002 CL), and 0.3 mg/ml L Glutamine (Cell Gro catalog number 25 003 CL). A 20,000 cells/ml solution was made for plating. Cells were plated in black Packard 96 well plates by placing 100 μl per well (2,000 cells per well).
(§2) Compounds and additional media were added 24′ hours after cell plating. A compound master plate was created with concentrations 500 times greater than the final concentration added to the cells. All compound testing was done in duplicate using 3 fold dilutions starting with 10 mM. All outside wells (and 4 internal wells) were DMSO controls. Taxol and at least one additional control were run on all plates. Three microliters of the compound master plate were added to deep well blocks containing 750 μl of RPMI media. One hundred microliters were transferred from the compound/media deep well blocks to the plated cells resulting in a 500 fold dilution of the compounds. Cells were grown at 37° C., 5% CO2 for 48 hours.
(§3) Cells to be analyzed by photography were fixed and stained. One hundred microliters of media were removed and 100 μl of 2% paraformaldehyde was added to each well. Plates were left on the benchtop for 45 minutes. A staining solution containing 1.55 μl of 1 mg/ml DAPI added to 18.75 ml PBS was warmed for 15 minutes at 37° C. The cells were aspirated prior to washing with 100 μl of PBS. Seventy microliters of PBS were aspirated and 170 μl of the DAPI solution were added to each well of fixed cells. Plates were left at room temperature for one hour then aspirated and washed twice with 100 μl of PBS. The stained cells were left at 4° C. for a minimum of 16 hours before photographic analysis with Array Scan II (Cellomics). Analysis of the photographic images to determine numbers of live cells (proliferation), apoptotic cells and dead cells, were according to the methods described in U.S. Provisional Patent Application Ser. No. 60/406,714, which incorporated herein in its entirety.

U2OS cells = test: PAD anti-proliferation assay, U2OS; format: cell-based; settings: Homo sapiens, 48 hours, read-out: PAD/U20S IC50
Description: as §1, §2, §3
Some cell plates were treated with Promega Cell titer Aqueous 1 kit (Promega—VWR catalog number G3580). In this case, 48 hours after the test compound were added, 100 μl of media were removed and 20 μl of cell titer reagent were added to all wells. Plates were incubated at 37° C. for 45 minutes prior to absorbance reads on the Wallac plate reader at 490 nm for 0.1 sec/well. Similar experiments can be carried out using cell lines U2OS and DLD-1.

[2] = system: p53 reporter system in p53 wild-type U2OS cell line; test: p53-dependent transcription reporter assay, U20SRE; format: cell-based; settings: p53 +ve cell type; maximal fold induction over DMSO control
Text: Stable lines of U2OS (osteosarcoma; Wild-type p53 positive), HCT116 (colorectal carcinoma; Wild-type p53 positive) and H1299 (lung non-small cell carcinoma; p53 null) carrying p53-dependent transcriptional regulatory element linked to a Luciferase reporter gene and H1299 carrying a 5′-regulatory region of GADD45 linked to Luciferase were used.
Day 1: Cells were re-plated into 96-well plates at suitable densities to make 50-60% confluence on Day 2. The plating densities are as follows: 7.5×10^3 cells/well (or 2.5×10^4 cells/cm^2) for U2OS; 1.5×10^4 cells/well (or 5.0×10^4 cells/cm^2) for HCT116; and 1.0×10^4 cells/well (or 3.3×10^4 cells/cm^2) for H1299.
Day 2: The compounds or control drugs were diluted in dimethyl sulfoxide (DMSO) and added to the wells to create 6-points/2-fold serial dilution (20, 10, 5, 2.5, 1.25, 0.625 and 0 μM) for each compound. The DMSO concentration was adjusted to 0.2% in all wells.
Day 3: Twenty to 24 hours after compound addition, cells were twice washed with PBS and lysed with Glo-lysis buffer (100 μl/well, Promega; Cat#E2661). Plates were subjected to gentle agitation on a table-top shaker for 5 minutes at room temperature. Fifty μl of lysate was transferred to an assay plate to test for luciferase activity and mixed with 2× assay buffer (Promega; Cat# E1483). The reaction mixture was left at room temperature for 2 minutes and then luminescence was measure by a luminometer (Victor™, 1420 Multilabel Counter, Wallac).
Data analysis was done on Excel software (Microsoft). Values in Table 4 represent maximal fold induction over negative control (DMSO only) and are the mean of at least duplicate experiments.
U20SRE is a p53 wild-type U2OS cell line containing p53 reporter system. If the compound acts against MDM2, p53 activity increases.

[3] = Table 3, read-out: APC Plate IC50

Sequence of E3 (His-APC11/APC2, "APC") (Q9NYG5 whole entry): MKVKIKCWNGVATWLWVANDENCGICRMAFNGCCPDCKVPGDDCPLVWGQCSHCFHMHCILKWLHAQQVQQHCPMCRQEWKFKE
Sequence of E3 (His-APC11/APC2, "APC") (Q9UJX6 whole entry): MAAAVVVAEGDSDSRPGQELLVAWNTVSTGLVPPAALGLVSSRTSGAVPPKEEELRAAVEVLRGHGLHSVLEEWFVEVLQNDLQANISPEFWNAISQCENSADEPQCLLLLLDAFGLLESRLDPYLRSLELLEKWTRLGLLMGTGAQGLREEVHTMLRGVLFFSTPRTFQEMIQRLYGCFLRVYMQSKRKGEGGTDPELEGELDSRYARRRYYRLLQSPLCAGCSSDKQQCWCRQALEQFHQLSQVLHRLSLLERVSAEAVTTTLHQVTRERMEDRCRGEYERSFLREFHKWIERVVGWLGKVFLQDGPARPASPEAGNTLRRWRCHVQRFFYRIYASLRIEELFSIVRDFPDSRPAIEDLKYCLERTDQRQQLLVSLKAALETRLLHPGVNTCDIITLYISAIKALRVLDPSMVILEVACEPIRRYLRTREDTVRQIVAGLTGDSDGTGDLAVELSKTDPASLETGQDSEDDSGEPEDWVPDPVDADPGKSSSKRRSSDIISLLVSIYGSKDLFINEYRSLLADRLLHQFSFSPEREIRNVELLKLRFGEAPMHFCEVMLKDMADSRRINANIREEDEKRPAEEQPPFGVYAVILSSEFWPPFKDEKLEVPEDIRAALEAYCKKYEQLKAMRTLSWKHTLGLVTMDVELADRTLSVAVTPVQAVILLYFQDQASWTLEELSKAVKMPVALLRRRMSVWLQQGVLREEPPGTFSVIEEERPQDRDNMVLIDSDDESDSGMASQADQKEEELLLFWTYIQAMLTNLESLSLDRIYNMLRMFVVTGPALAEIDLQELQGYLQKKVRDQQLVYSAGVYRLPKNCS

IC50 ([1]; Table 2, read-out: APC IC50)	IC50 [1, 3]	IC50 (H1299 cells)	IC50 (U2OS cells)	Fold Induction of p53 activity, U20SRE [2]	Structure (SMILES)
1 to 20 µM	1 to 20 µM	1 to 20 µM	1 to 20 µM	b (b means greater than 2)	O=C(c1ccc(CN(Cc2cccc(OC(F)(F)F)c2)c2nc(-c3ccccc3)cs2)cc1)N1CCNCC1 [compound 275]
1 to 20 µM	1 to 20 µM	1 to 20 µM	1 to 20 µM	b (b means greater than 2)	O=C(c1ccc(CN(Cc2cccc(OC(F)(F)F)c2)c2nc(-c3ccc4ccccc4c3)cs2)cc1)N1CCNCC1 [compound 282, 4-(2-naphthyl)-N-[4-(piperazin-1-ylcarbonyl)benzyl]-N-[3-(trifluoromethoxy)benzyl]-1,3-thiazol-2-amine]
1 to 20 µM	1 to 20 µM	1 to 20 µM	1 to 20 µM	b (b means greater than 2)	COc1cccc(-c2csc(N(Cc3ccc(C(=O)N4CCNCC4)cc3)Cc3cccc(OC(F)(F)F)c3)n2)c1 [compound 351]
1 to 20 µM	≥ 20 µM	1 to 20 µM	1 to 20 µM	b (b means greater than 2)	COc1cccc(-c2csc(N(CCOc3ccccc3)Cc3ccc(C(=O)N4CCNCC4)cc3)n2)c1 [compound 352]
1 to 20 µM	1 to 20 µM	1 to 20 µM	1 to 20 µM	a (a means 2 or less)	COc1cccc(CN(Cc2ccc(C(=O)N3CCNCC3)cc2)c2nc(-c3ccc(Br)cc3)cs2)c1OC [compound 353]
1 to 20 µM	1 to 20 µM	1 to 20 µM	1 to 20 µM	b (b means greater than 2)	O=C(c1ccc(CN(CCOc2ccccc2)c2nc(-c3ccc(Cl)c(Cl)c3)cs2)cc1)N1CCNCC1 [compound 360]
